Assay results reported in PubChem BioAssay AID489026 (Sanford-Burnham Center for Chemical Genomics, 2010).
The source made the active and inactive calls. The rule behind the calls is not given here.

Test system: HEK-293T cytotoxicity, luminescence viability
Test: cytotoxicity in HEK-293T cells, dose response, cytotoxicity control, luminescence, T-cell screen hits (AID 489026)

C[C@@H]1O[C@@H](O[C@H]2C[C@@H](O)[C@]3(CO)[C@@H]4C(CC[C@]3(O)C2)[C@@]2(O)CC[C@H](C3COC(=O)C3)[C@@]2(C)C[C@H]4O)[C@H](O)[C@H](O)[C@H]1O (some centres not stated)
IC50: > 80 µM (inactive)

C=C(C=O)C[C@@H]1C[C@H](O)C2OC3C[C@]4(C)OC5/C=C\CC6OC7C(CC=CCC6OC5CCCC4OC3CC2O1)OC1CC2OC3CC(=O)OC3C[C@@H](C)C[C@@]2(C)OC1C[C@@H]7C (some centres not stated)
IC50: 39.8 µM (inactive)
